In PMC7686577, “Discovery of Novel IDH1 Inhibitor Through Comparative Structure-Based Virtual Screening” (Frontiers in Pharmacology, 2020):

What was measured:
[1] = tested on: advanced hematological malignancies; design: method as in Foran et al., 2019; settings: clinic, ref Foran et al., 2019; cited from earlier work
mutant IDH1^R132H = mutant IDH1^R132H (Homo sapiens, UniProt O75874, R132H); assay: IDH1^R132H enzymatic assay (diaphorase/resazurin readout of NADPH); type: biochemical; settings: for Inhibition ratio (%) 50 (μM): compound at 50 μM
Protocol: This assay added into a 384-well blank plate and then incubated at room temperature for 60 min. […] Curve fitting for dose response IC50 was done using GraphPad Prism.
These 12 ligands were submitted to determine the IC50.

Chain of mutant IDH1^R132H (O75874 whole entry R132H): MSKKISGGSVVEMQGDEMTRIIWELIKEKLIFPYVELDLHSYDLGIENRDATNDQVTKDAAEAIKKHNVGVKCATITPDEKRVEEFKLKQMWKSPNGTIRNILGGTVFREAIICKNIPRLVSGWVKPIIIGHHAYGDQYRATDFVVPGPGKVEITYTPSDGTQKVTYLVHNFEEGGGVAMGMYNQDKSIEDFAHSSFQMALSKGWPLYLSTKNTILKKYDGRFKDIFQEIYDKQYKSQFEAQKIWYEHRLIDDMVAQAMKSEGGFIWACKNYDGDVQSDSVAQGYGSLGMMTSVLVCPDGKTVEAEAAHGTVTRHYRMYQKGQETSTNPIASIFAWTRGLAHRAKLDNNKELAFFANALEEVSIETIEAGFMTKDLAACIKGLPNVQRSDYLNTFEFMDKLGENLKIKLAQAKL

IC50 (mutant IDH1^R132H) [µM]	Inhibition ratio (%) 50 (μM) (mutant IDH1^R132H) [%]	SMILES	total overall response rate [1] [%]
–	–	N#Cc1ccnc(N2C(=O)CC[C@H]2C(=O)N(c2cncc(F)c2)[C@H](C(=O)NC2CC(F)(F)C2)c2ccccc2Cl)c1 [AG-120]	42
20.8 ± 4.2	73.30±1.90	COc1ccc(C(=O)[C@@H](Cn2cncn2)[C@H](Sc2ccccc2)c2ccccc2)cc1 [AQ-714/41674992]	–
46.9 ± 6	58.00±0.60	O=C1C[C@H](C(=O)N(Cc2cccc3ccccc23)c2ccccn2)CN1Cc1ccccc1 [D491-0852]	–
41.9 ± 8	54.30±4.30	CCC[C@@H]1N=C2c3ccccc3N=C(S[C@@H](CC)C(=O)Nc3cccc(Cl)c3)N2C1=O [G568-0082]	–
38 ± 2	61.15±6.15	CCOC(=O)c1[nH]c(C)c(CN(Cc2ccccc2)C(=O)[C@@H](C)Oc2ccccc2)c1C [G798-0506]	–
28.3 ± 2.5	66.25±3.25	O=C(NCc1ccc(C(F)(F)F)cc1)c1nnn(-c2ccccc2Cl)c1-c1cccnc1 [L806-0255]	–
50 ± 6.4	60.85±2.05	O=C1CS[C@@H](c2cccc(NS(=O)(=O)c3ccc4ccccc4c3)c2)N1c1ccc(F)cc1 [V010-1281]	–
23.8 ± 1.8	65.30±2.30	O=C1C[C@H](C(=O)N(CCc2ccccc2)Cc2ccccc2)CN1Cc1cccc(Br)c1 [V015-1671]	–
42.9 ± 2.8	54.90±1.70	O=C(Cc1ccc(N(Cc2ccccc2)C(=O)c2cccc(F)c2)cc1)NCc1cccnc1 [V016-3750]	–
45.5 ± 3.1	59.15±3.75	CN(CC(=O)N1N=C(c2ccccc2Cl)C[C@H]1c1ccc2c(c1)OCO2)C(=O)C1CCCC1 [V025-9252]	–
